Tested on: bacterial isolates
Test: microbe, parasite or virus in culture
Type: cell-based

For KKWWRRALQGLKTAGPAIQSVLNK [MBI 21A2], the “Peptide MIC Alone” value (1. Amikacin, A. baumannii ABI001) was 8 µg/mL, the “Peptide MIC Alone” value (1. Amikacin, A. baumannii ABI003) was 8 µg/mL and the “Peptide MIC Alone” value (1. Amikacin, E. faecalis EFS008) was over 128 µg/mL. The “Peptide MIC Alone” value (1. Amikacin, E. faecium EFM004) was over 128 µg/mL, the “Peptide MIC Alone” value (1. Amikacin, P. aeruginosa PA022) was 8 µg/mL and the “Peptide MIC Alone” value (1. Amikacin, S. aureus SA025 MRSA) was 2 µg/mL. The “Peptide MIC Alone” value (1. Amikacin, S. epidermidis SE003) was over 128 µg/mL, the “Peptide MIC Alone” value (1. Amikacin, S. maltophilia SMA018) was 16 µg/mL and the “Peptide MIC Alone” value (1. Amikacin, S. maltophilia SMA022) was over 128 µg/mL. The “Peptide MIC Alone” value (3. Ciprofloxacin, P. aeruginosa PA4) was over 128 µg/mL, the “Peptide MIC Alone” value (3. Ciprofloxacin, P. aeruginosa PA41) was 64 µg/mL and the “Peptide MIC Alone” value (3. Ciprofloxacin, S. aureus SA25) was 16 µg/mL. For the same sequence, the “Peptide MIC Alone” value (3. Ciprofloxacin, S. aureus SA93) was 16 µg/mL, the “Peptide MIC Alone” value (4. Gentamicin, A. baumannii ABI002) was 8 µg/mL and the “Peptide MIC Alone” value (4. Gentamicin, P. aeruginosa PA022) was 8 µg/mL. The “Peptide MIC Alone” value (4. Gentamicin, S. aureus SA025 MRSA) was 8 µg/mL, the “Peptide MIC Alone” value (4. Gentamicin, S. maltophilia SMA019) was 16 µg/mL and the “Peptide MIC Alone” value (4. Gentamicin, S. maltophilia SMA020) was 16 µg/mL. The “Peptide MIC Alone” value (4. Gentamicin, S. maltophilia SMA021) was 16 µg/mL, the “Amikacin MIC + Peptide” value (A. baumannii ABI001) was 32 µg/mL and the “Peptide MIC + Amikacin” value (A. baumannii ABI001) was 0.125 µg/mL. The “Gentamicin MIC + Peptide” value (A. baumannii ABI002) was 16 µg/mL, the “Peptide MIC + Gentamicin” value (A. baumannii ABI002) was 0.5 µg/mL and the “Amikacin MIC + Peptide” value (A. baumannii ABI003) was 8 µg/mL. The “Peptide MIC + Amikacin” value (A. baumannii ABI003) was 4 µg/mL, the “Peptide MIC + Piperacillin” value (E. coli 1) was 2 µg/mL and the “Piperacillin MIC + Peptide” value (E. coli 1) was 8 µg/mL. The “Peptide MIC Alone” value (E. coli 1, Piperacillin section) was 4 µg/mL, the “Amikacin MIC + Peptide” value (E. faecalis EFS008) was 32 µg/mL and the “Peptide MIC + Amikacin” value (E. faecalis EFS008) was 0.125 µg/mL. The “Amikacin MIC + Peptide” value (E. faecium EFM004) was 64 µg/mL, the “Peptide MIC + Amikacin” value (E. faecium EFM004) was 16 µg/mL and the “Peptide MIC + Piperacillin” value (H. influenzae 1) was 64 µg/mL. The “Piperacillin MIC + Peptide” value (H. influenzae 1) was 4 µg/mL, the “Peptide MIC Alone” value (H. influenzae 1, Piperacillin section) was over 128 µg/mL and the “Peptide MIC + Piperacillin” value (H. influenzae 2) was 32 µg/mL. The “Piperacillin MIC + Peptide” value (H. influenzae 2) was 32 µg/mL, the “Peptide MIC Alone” value (H. influenzae 2, Piperacillin section) was over 128 µg/mL and the “Peptide MIC + Piperacillin” value (P. aeruginosa 23) was 16 µg/mL. For the same sequence, the “Piperacillin MIC + Peptide” value (P. aeruginosa 23) was 8 µg/mL, the “Peptide MIC Alone” value (P. aeruginosa 23, Piperacillin section) was over 128 µg/mL and the “Ciprofloxacin MIC + Peptide” value (P. aeruginosa PA4) was 0.125 µg/mL. For the same sequence, the “Peptide MIC + Ciprofloxacin” value (P. aeruginosa PA4) was 64 µg/mL, the “Amikacin MIC + Peptide” value (P. aeruginosa PA022) was 16 µg/mL and the “Gentamicin MIC + Peptide” value (P. aeruginosa PA022) was 8 µg/mL. The “Peptide MIC + Amikacin” value (P. aeruginosa PA022) was 2 µg/mL, the “Peptide MIC + Gentamicin” value (P. aeruginosa PA022) was 2 µg/mL and the “Ciprofloxacin MIC + Peptide” value (P. aeruginosa PA41) was 1 µg/mL. The “Peptide MIC + Ciprofloxacin” value (P. aeruginosa PA41) was 16 µg/mL, the “Peptide MIC + Piperacillin” value (S. aureus 19 MRSA) was 2 µg/mL and the “Piperacillin MIC + Peptide” value (S. aureus 19 MRSA) was 64 µg/mL. For the same sequence, the “Peptide MIC Alone” value (S. aureus 19 MRSA, Piperacillin section) was over 128 µg/mL, the “Ciprofloxacin MIC + Peptide” value (S. aureus SA25) was 0.5 µg/mL and the “Peptide MIC + Ciprofloxacin” value (S. aureus SA25) was 4 µg/mL. The “Amikacin MIC + Peptide” value (S. aureus SA025 MRSA) was 2 µg/mL, the “Gentamicin MIC + Peptide” value (S. aureus SA025 MRSA) was 32 µg/mL and the “Peptide MIC + Amikacin” value (S. aureus SA025 MRSA) was 1 µg/mL. For the same sequence, the “Peptide MIC + Gentamicin” value (S. aureus SA025 MRSA) was 1 µg/mL, the “Ciprofloxacin MIC + Peptide” value (S. aureus SA93) was 8 µg/mL and the “Peptide MIC + Ciprofloxacin” value (S. aureus SA93) was 2 µg/mL. The “Peptide MIC + Piperacillin” value (S. aureus SB2MRSA) was 2 µg/mL, the “Piperacillin MIC + Peptide” value (S. aureus SB2MRSA) was 64 µg/mL and the “Peptide MIC Alone” value (S. aureus SB2MRSA, Piperacillin section) was 32 µg/mL. For the same sequence, the “Amikacin MIC + Peptide” value (S. epidermidis SE003) was 4 µg/mL, the “Peptide MIC + Amikacin” value (S. epidermidis SE003) was 64 µg/mL and the “Peptide MIC + Piperacillin” value (S. maltophilia 6) was 16 µg/mL. The “Piperacillin MIC + Peptide” value (S. maltophilia 6) was 64 µg/mL, the “Peptide MIC Alone” value (S. maltophilia 6, Piperacillin section) was 128 µg/mL and the “Peptide MIC + Piperacillin” value (S. maltophilia 14) was 16 µg/mL. The “Piperacillin MIC + Peptide” value (S. maltophilia 14) was 4 µg/mL, the “Peptide MIC Alone” value (S. maltophilia 14, Piperacillin section) was 32 µg/mL and the “Amikacin MIC + Peptide” value (S. maltophilia SMA018) was 64 µg/mL. The “Peptide MIC + Amikacin” value (S. maltophilia SMA018) was 4 µg/mL, the “Gentamicin MIC + Peptide” value (S. maltophilia SMA019) was 16 µg/mL and the “Peptide MIC + Gentamicin” value (S. maltophilia SMA019) was 4 µg/mL. For the same sequence, the “Gentamicin MIC + Peptide” value (S. maltophilia SMA020) was 16 µg/mL, the “Peptide MIC + Gentamicin” value (S. maltophilia SMA020) was 4 µg/mL and the “Gentamicin MIC + Peptide” value (S. maltophilia SMA021) was 16 µg/mL. The “Peptide MIC + Gentamicin” value (S. maltophilia SMA021) was 4 µg/mL, the “Amikacin MIC + Peptide” value (S. maltophilia SMA022) was 32 µg/mL and the “Peptide MIC + Amikacin” value (S. maltophilia SMA022) was 32 µg/mL. For the same sequence, the “Peptide MIC + Piperacillin” value (S. marcescens 1) was 4 µg/mL, the “Piperacillin MIC + Peptide” value (S. marcescens 1) was 16 µg/mL and the “Peptide MIC Alone” value (S. marcescens 1, Piperacillin section) was over 128 µg/mL. For the same sequence, the FIC (peptide + Amikacin, A. baumannii ABI001) was 0.52, the FIC (peptide + Amikacin, A. baumannii ABI003) was 0.52 and the FIC (peptide + Amikacin, E. faecalis EFS008) was 0.50. It also gave an FIC (peptide + Amikacin, E. faecium EFM004) of 0.56, an FIC (peptide + Amikacin, P. aeruginosa PA022) of 0.50 and an FIC (peptide + Amikacin, S. aureus SA025 MRSA) of 0.56. The FIC (peptide + Amikacin, S. epidermidis SE003) was 0.38, the FIC (peptide + Amikacin, S. maltophilia SMA018) was 0.50 and the FIC (peptide + Amikacin, S. maltophilia SMA022) was 0.25. For the same sequence, the FIC (peptide + Ciprofloxacin, P. aeruginosa PA4) was 0.50, the FIC (peptide + Ciprofloxacin, P. aeruginosa PA41) was 0.50 and the FIC (peptide + Ciprofloxacin, S. aureus SA25) was 0.50. For the same sequence, the FIC (peptide + Ciprofloxacin, S. aureus SA93) was 0.38, the FIC (peptide + Gentamicin, A. baumannii ABI002) was 0.56 and the FIC (peptide + Gentamicin, P. aeruginosa PA022) was 0.50. The FIC (peptide + Gentamicin, S. aureus SA025 MRSA) was 0.63, the FIC (peptide + Gentamicin, S. maltophilia SMA019) was 0.50 and the FIC (peptide + Gentamicin, S. maltophilia SMA020) was 0.50. It also gave an FIC (peptide + Gentamicin, S. maltophilia SMA021) of 0.50, an FIC (peptide + Piperacillin, E. coli 1) of 0.53 and an FIC (peptide + Piperacillin, H. influenzae 1) of 0.31. For the same sequence, the FIC (peptide + Piperacillin, H. influenzae 2) was 0.38, the FIC (peptide + Piperacillin, P. aeruginosa 23) was 0.19 and the FIC (peptide + Piperacillin, S. aureus 19 MRSA) was 0.51. The FIC (peptide + Piperacillin, S. aureus SB2MRSA) was 0.56, the FIC (peptide + Piperacillin, S. maltophilia 6) was 0.38 and the FIC (peptide + Piperacillin, S. maltophilia 14) was 0.53. It also gave an FIC (peptide + Piperacillin, S. marcescens 1) of 0.27.

— patent US20020035061A1, “COMPOSITIONS AND METHODS FOR TREATING INFECTIONS USING CATIONIC PEPTIDES ALONE OR IN COMBINATION WITH ANTIBIOTICS” (priority 1996, published 2002)
